Reference: ChEMBL document CHEMBL1138308, “Synthesis and antibacterial activity of potent heterocyclic oxazolidinones and the identification of RBx 8700” (2007)
≈ marks a conversion by molar mass, not a printed value.

Key:
Assay type in all cases: functional
Staphylococcus aureus [1] = assay: Antibacterial activity against Staphylococcus aureus ATCC 25923 after 24 hrs by agar dilution method; settings: ATCC 25923, 24 h
Staphylococcus aureus [2] = assay: Antibacterial activity against methicillin-resistant Staphylococcus aureus 562 after 24 hrs by agar dilution method
Staphylococcus aureus [3] = assay: Antibacterial activity against methicillin-resistant Staphylococcus aureus 33 after 24 hrs by agar dilution method
Enterococcus faecium = assay: Antibacterial activity against vancomycin-resistant Enterococcus faecium 6A after 24 hrs by agar dilution method
Enterococcus faecalis = assay: Antibacterial activity against Enterococcus faecalis ATCC 29212 after 24 hrs by agar dilution method; settings: ATCC 29212, 24 h
Streptococcus pyogenes = assay: Antibacterial activity against Streptococcus pyogenes ATCC 19615 after 24 hrs by agar dilution method; settings: ATCC 19615, 24 h
Streptococcus pneumoniae = assay: Antibacterial activity against Streptococcus pneumoniae ATCC 6303 after 24 hrs by agar dilution method; settings: ATCC 6303, 24 h
Staphylococcus aureus [4] = assay: Antibacterial activity against methicillin-resistant Staphylococcus aureus 562 infected orally dosed Swiss albino mouse after 7 days; settings: po, 168 h
Haemophilus influenzae = assay: Antibacterial activity against Haemophilus influenzae
Moraxella catarrhalis = assay: Antibacterial activity against Moraxella catarrhalis
[5] = tested on: Mycobacterium tuberculosis; assay: Antibacterial activity against sensitive Mycobacterium tuberculosis
Staphylococcus aureus [6] = assay: Antibacterial activity against methicillin-resistant Staphylococcus aureus 562 infected sc dosed Swiss albino mouse after 7 days; settings: 168 h

Row | SMILES | MIC (Staphylococcus aureus [1]) [µg/mL] | MIC (Staphylococcus aureus [2]) [µg/mL] | MIC (Staphylococcus aureus [3]) [µg/mL] | MIC (Enterococcus faecium) [µg/mL] | MIC (Enterococcus faecalis) [µg/mL] | MIC (Streptococcus pyogenes) [µg/mL] | MIC (Streptococcus pneumoniae) [µg/mL] | ED50 (Staphylococcus aureus [4]) [mg/kg] | MIC50 (Haemophilus influenzae) [µg/mL] | MIC50 (Moraxella catarrhalis) [µg/mL] | MIC90 [5] [µg/mL] | ED50 (Staphylococcus aureus [6]) [mg/kg]
1 | CC(=O)NC[C@H]1CN(c2ccc(N3CCN(C(=O)c4ccc([N+](=O)[O-])s4)CC3)c(F)c2)C(=O)O1 | 0.125 (≈ 0.254 µM) | 0.06 (≈ 0.122 µM) | 0.06 (≈ 0.122 µM) | 0.5 (≈ 1.02 µM) | 0.5 (≈ 1.02 µM) | 0.125 (≈ 0.254 µM) | 0.5 (≈ 1.02 µM) | 9.77 | – | – | – | –
2 | CC(=O)NC[C@H]1CN(c2ccc(N3CCN(c4ccc([N+](=O)[O-])s4)CC3)c(F)c2)C(=O)O1 | 0.25 (≈ 0.539 µM) | 0.25 (≈ 0.539 µM) | 0.25 (≈ 0.539 µM) | 0.25 (≈ 0.539 µM) | 0.25 (≈ 0.539 µM) | 0.125 (≈ 0.27 µM) | 0.125 (≈ 0.27 µM) | 11.2 | 8 (≈ 17.3 µM) | 2 (≈ 4.32 µM) | 0.25 (≈ 0.539 µM) | –
3 | CC(=O)NC[C@H]1CN(c2cc(F)c(N3CCN(c4ccc([N+](=O)[O-])s4)CC3)c(F)c2)C(=O)O1 | 0.25 (≈ 0.519 µM) | 0.25 (≈ 0.519 µM) | 0.25 (≈ 0.519 µM) | 0.25 (≈ 0.519 µM) | 0.25 (≈ 0.519 µM) | 0.5 (≈ 1.04 µM) | 0.5 (≈ 1.04 µM) | > 25 | – | – | – | –
4 | CC(=O)NC[C@H]1CN(c2ccc(N3CCN(Cc4ccc([N+](=O)[O-])o4)CC3)c(F)c2)C(=O)O1.Cl [RANBEZOLID CHLORIDE] | 1 | 1 | 2 | 2 | 2 | 0.125 | 0.125 | 4.33 | – | – | – | –
5 | CC(=O)NC[C@H]1CN(c2ccc(N3CCN(c4ccc(C#N)s4)CC3)c(F)c2)C(=O)O1 | 4 (≈ 9.02 µM) | 2 (≈ 4.51 µM) | 2 (≈ 4.51 µM) | – | 2 (≈ 4.51 µM) | 0.25 (≈ 0.564 µM) | 0.5 (≈ 1.13 µM) | – | – | – | – | –
6 | CC(=O)NC[C@H]1CN(c2ccc(N3CCOCC3)c(F)c2)C(=O)O1 [LINEZOLID] | – | – | – | 2 (≈ 5.93 µM) | – | 2 (≈ 5.93 µM) | – | 5.6 | – | – | – | –
7 | CC(=O)NC[C@H]1CN(c2ccc(N3CCN(C(C)c4ccc([N+](=O)[O-])o4)CC3)c(F)c2)C(=O)O1 (stereo partly drawn) | 1 (≈ 2.1 µM) | 1 (≈ 2.1 µM) | 1 (≈ 2.1 µM) | 0.25 (≈ 0.526 µM) | 0.125 (≈ 0.263 µM) | 0.06 (≈ 0.126 µM) | 1 (≈ 2.1 µM) | 9.1 | – | – | – | –
8 | CC(=O)NC[C@H]1CN(c2ccc(N3CCN(c4ccc(C=O)s4)CC3)c(F)c2)C(=O)O1 | 1 (≈ 2.24 µM) | 0.5 (≈ 1.12 µM) | 0.5 (≈ 1.12 µM) | 1 (≈ 2.24 µM) | < 0.25 | 0.5 (≈ 1.12 µM) | 0.5 (≈ 1.12 µM) | > 25 | – | – | – | –
9 | CC(=O)NC[C@H]1CN(c2ccc(N3CCN(c4ccc([N+](=O)[O-])s4)CC3)cc2)C(=O)O1 | 2 (≈ 4.49 µM) | 1 (≈ 2.24 µM) | 1 (≈ 2.24 µM) | 1 (≈ 2.24 µM) | 1 (≈ 2.24 µM) | 0.5 (≈ 1.12 µM) | 0.5 (≈ 1.12 µM) | – | – | – | – | –
10 | CC(=O)NC[C@H]1CN(c2ccc(N3CCN(C(C)c4ccc([N+](=O)[O-])s4)CC3)c(F)c2)C(=O)O1 (stereo partly drawn) | 0.5 (≈ 1.02 µM) | 0.5 (≈ 1.02 µM) | 0.5 (≈ 1.02 µM) | 0.5 (≈ 1.02 µM) | 0.5 (≈ 1.02 µM) | 2 (≈ 4.07 µM) | 2 (≈ 4.07 µM) | > 25 | – | – | – | –
11 | CC(=O)NC[C@H]1CN(c2ccc(N3CCN(C(=O)c4ccc([N+](=O)[O-])o4)CC3)c(F)c2)C(=O)O1 | 1 (≈ 2.1 µM) | – | 0.5 (≈ 1.05 µM) | 1 (≈ 2.1 µM) | 1 (≈ 2.1 µM) | 2 (≈ 4.21 µM) | 2 (≈ 4.21 µM) | 8.24 | – | – | – | –
12 | CN[C@H](CC(C)C)C(=O)N[C@H]1C(=O)N[C@@H](CC(N)=O)C(=O)N[C@H]2C(=O)N[C@H]3C(=O)N[C@H](C(=O)N[C@H](C(=O)O)c4cc(O)cc(O)c4-c4cc3ccc4O)[C@H](O)c3ccc(c(Cl)c3)Oc3cc2cc(c3O[C@@H]2O[C@H](CO)[C@@H](O)[C@H](O)[C@H]2O[C@H]2C[C@](C)(N)[C@H](O)[C@H](C)O2)Oc2ccc(cc2Cl)[C@H]1O [VANCOMYCIN] | – | – | – | > 16 | – | – | 0.5 (≈ 0.345 µM) | – | – | – | – | 8.8
13 | CC(=O)NC[C@H]1CN(c2ccc(N3CCN(c4ccc([N+](=O)[O-])o4)CC3)c(F)c2)C(=O)O1 | 16 (≈ 35.8 µM) | 16 (≈ 35.8 µM) | 8 (≈ 17.9 µM) | 8 (≈ 17.9 µM) | 8 (≈ 17.9 µM) | 4 (≈ 8.94 µM) | 4 (≈ 8.94 µM) | – | – | – | – | –
14 | CC(=O)NC[C@H]1CN(c2ccc(N3CCN(C(=O)/C=C/c4ccc([N+](=O)[O-])o4)CC3)c(F)c2)C(=O)O1 | 0.5 (≈ 0.997 µM) | 0.25 (≈ 0.499 µM) | 0.25 (≈ 0.499 µM) | < 0.125 | 0.5 (≈ 0.997 µM) | < 0.125 | 0.5 (≈ 0.997 µM) | > 25 | – | – | – | –
15 | CC(=O)NC[C@H]1CN(c2ccc(N3CCN(C(=O)/C=C/c4ccc([N+](=O)[O-])s4)CC3)c(F)c2)C(=O)O1 | 0.5 (≈ 0.966 µM) | 1 (≈ 1.93 µM) | 0.5 (≈ 0.966 µM) | 0.5 (≈ 0.966 µM) | 1 (≈ 1.93 µM) | 0.5 (≈ 0.966 µM) | 1 (≈ 1.93 µM) | > 25 | – | – | – | –
16 | CC(=O)NC[C@H]1CN(c2ccc(N3CCN(c4ccc(C(C)=O)s4)CC3)c(F)c2)C(=O)O1 | > 16 | > 16 | > 16 | > 16 | > 16 | > 16 | > 16 | – | – | – | – | –
17 | CC(=O)NC[C@H]1CN(c2ccc(N3CCN(Cc4ccc([N+](=O)[O-])s4)CC3)c(F)c2)C(=O)O1 | 8 (≈ 16.8 µM) | 8 (≈ 16.8 µM) | 8 (≈ 16.8 µM) | 8 (≈ 16.8 µM) | 8 (≈ 16.8 µM) | 1 (≈ 2.09 µM) | 8 (≈ 16.8 µM) | > 25 | – | – | – | –
